Tests used:
monochoria (Mo) = assay: Test Example 1: herbicidal effects by paddy field soil treatment; assay type: in vivo; details: 100 g of the active ingredient per 10 ares, 21st day after the application, index 0-5 of Table 47;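 further: grade of growth control; 5 = at least 90%; 4 = 70 to 90%; 3 = 50 to 70%; 2 = 30 to 50%; 1 = 10 to 30%; 0 = under 10%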
Outline: (§1)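 Flooded paddy-soil pots (3 cm water) sown after puddling/leveling; treatment 100 g a.i./10 ares; greenhouse culture; herbicidal effect rated visually on a scoring scale at 21 d post-application.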

barnyardgrass (Ec) [1] = assay: as above; assay type: in vivo; details: 100 g of the active ingredient per 10 ares, 21st day after the application, index 0-5 of Table 47
Outline: as §1

bulrush (Sc) = assay: as above; assay type: in vivo; details: 100 g of the active ingredient per 10 ares, 21st day after the application, index 0-5 of Table 47;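 further: grade of growth control; 5 = at least 90%; 4 = 70 to 90%; 3 = 50 to 70%; 2 = 30 to 50%; 1 = 10 to 30%; 0 = under 10%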
Outline: as §1

wheat (Tr) = assay: Test Example 9: crop plant selectivity by upland field foliage treatment (wheat), phytotoxicity; details: dose 1.6 g ai/10a, 14th day after treatment;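 further: grade of crop injury; 5 = at least 90%; 4 = 70 to 90%; 3 = 50 to 70%; 2 = 30 to 50%; 1 = 10 to 30%; 0 = under 10%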
Procedure: (§2) (Test on Crop Plant Selectivity by Upland Field Foliage Treatment)
(§3) In a plastic pot (surface area: 600 cm^2) filled with sand, wheat (Tr), pale smartweed (Po), slender amaranth (Am), common lambsquarters (Ch) and China jute (Ab) were sown and cultured in a green house for 2 weeks. […] The plants were then cultured in a green house, and the evaluation of the herbicidal effects and phytotoxicity was conducted on the 14th day after the treatment in accordance with the standards as identified in Table 47.

cotton (Go) = assay: Test Example 4: crop plant selectivity by upland field soil treatment (cotton), phytotoxicity; assay type: in vivo; parameters: scale not given here; details: dose 6.3 g ai/10 a, evaluated 21st day after application
Procedure: (§4) (Test on Crop Plant Selectivity by Upland Field Soil Treatment)
(§5) In a plastic pot (surface area: 600 cm^2) filled with sand, cotton (Go), Diaitaria ciliaris (Di), green foxtail (Se), pale smartweed (Po), slender amaranth (Am), common lambsquarters (Ch) and China jute (Ab) were sown and covered with soil. […] The plants were then cultured in a green house, and the evaluation of the herbicidal effects and phytotoxicity was conducted on the 21st day after the application in accordance with the standards as identified in Table 47. Symbol—represents “not tested”.

pale smartweed (Po) [2] = assay: Test Example 3: herbicidal effects by upland field foliage treatment; assay type: in vivo; parameters: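 grade of growth control; 5 = at least 90%; 4 = 70 to 90%; 3 = 50 to 70%; 2 = 30 to 50%; 1 = 10 to 30%; 0 = under 10%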; details: 100 g of the active ingredient per 10 ares, evaluated on the 14th day after treatment
Outline: (§6)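 Post-emergence upland foliage test. Seedlings grown 2 weeks under glass in pots (120 cm^2) of sand, seed topped with soil; treated on the foliage, kept in greenhouse, then assessed at day 14 using rating standards.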

slender amaranth (Am) [3] = assay: as above; assay type: in vivo; parameters: scale not given here; details: 100 g of the active ingredient per 10 ares, evaluated on the 14th day after treatment
Outline: as §6

[4] = tested on: common lambsquarters (Ch); assay: as above; assay type: in vivo; parameters: scale not given here; details: 100 g of the active ingredient per 10 ares, evaluated on the 14th day after treatment
Outline: as §6

barnyardgrass (Ec) [5] = assay: as above; assay type: in vivo; parameters: scale not given here; details: 100 g of the active ingredient per 10 ares, evaluated on the 14th day after treatment
Outline: as §6

Diaitaria ciliaris (Di) = assay: as above; assay type: in vivo; parameters: scale not given here; details: 100 g of the active ingredient per 10 ares, evaluated on the 14th day after treatment
Outline: as §6

rice flatsedge (Ci) [6] = assay: as above; assay type: in vivo; parameters: scale not given here; details: 100 g of the active ingredient per 10 ares, evaluated on the 14th day after treatment
Outline: as §6

pale smartweed (Po) [7] = assay: Test Example 2: herbicidal effects by upland field soil treatment; assay type: in vivo; details: 100 g of the active ingredient per 10 ares, 21st day after the application, index 0-5 of Table 47;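 further: grade of growth control; 5 = at least 90%; 4 = 70 to 90%; 3 = 50 to 70%; 2 = 30 to 50%; 1 = 10 to 30%; 0 = under 10%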
Description: (§7) (Test on Herbicidal Effects by Upland Field Soil Treatment)

slender amaranth (Am) [8] = assay: as above; assay type: in vivo; details: 100 g of the active ingredient per 10 ares, 21st day after the application, index 0-5 of Table 47
Description: as §7

[9] = tested on: common lambsquarters (Ch); assay: as above; assay type: in vivo; details: 100 g of the active ingredient per 10 ares, 21st day after the application, index 0-5 of Table 47
Description: as §7

barnyardgrass (Ec) [10] = assay: as above; assay type: in vivo; details: 100 g of the active ingredient per 10 ares, 21st day after the application, index 0-5 of Table 47
Description: as §7

Digitaria ciliaris (Di) = assay: as above; assay type: in vivo; details: 100 g of the active ingredient per 10 ares, 21st day after the application, index 0-5 of Table 47
Description: as §7

rice flatsedge (Ci) [11] = assay: as above; assay type: in vivo; details: 100 g of the active ingredient per 10 ares, 21st day after the application, index 0-5 of Table 47
Description: as §7

pale smartweed (Po) [12] = assay: Test Example 6: crop plant selectivity by upland field soil treatment (soybean), herbicidal effects; assay type: in vivo; parameters: scale not given here; details: dose 6.3 g ai/10a, 21st day after application
Procedure: as §4
(§8) In a plastic pot (surface area: 600 cm^2) filled with sand, soybean (Gl), Diaitaria ciliaris (Di), green foxtail (Se), Johnsongrass (So), pale smartweed (Po), slender amaranth (Am), common lambsquarters (Ch) and China jute (Ab) were sown and covered with soil. […] The plants were then cultured in a green house, and the evaluation of the herbicidal effects and phytotoxicity was conducted on the 21st day after the application in accordance with the standards as identified in Table 47. Symbol—represents “not tested”.

slender amaranth (Am) [13] = assay: as above; assay type: in vivo; parameters: scale not given here; details: dose 6.3 g ai/10a, 21st day after application
Procedure: as §4, §8

[14] = tested on: common lambsquarters (Ch); assay: as above; assay type: in vivo; parameters: scale not given here; details: dose 6.3 g ai/10a, 21st day after application
Procedure: as §4, §8

green foxtail (Se) [15] = assay: as above; assay type: in vivo; parameters: scale not given here; details: dose 6.3 g ai/10a, 21st day after application
Procedure: as §4, §8

China jute (Ab) [16] = assay: as above; assay type: in vivo; parameters: scale not given here; details: dose 6.3 g ai/10a, 21st day after application
Procedure: as §4, §8

soybean (Gl) = assay: Test Example 6: crop plant selectivity by upland field soil treatment (soybean), phytotoxicity; assay type: in vivo; parameters: scale not given here; details: dose 6.3 g ai/10a, 21st day after application
Procedure: as §4, §8

pale smartweed (Po) [17] = assay: Test Example 7: crop plant selectivity by upland field soil treatment (corn), herbicidal effects; assay type: in vivo; parameters: scale not given here; details: dose 6.3 g ai/10a, 21st day after application
Procedure: as §4
(§9) In a plastic pot (surface area: 600 cm^2) filled with sand, corn (Ze), green foxtail (Se), pale smartweed (Po), slender amaranth (Am), common lambsquarters (Ch) and China jute (Ab) were sown and covered with soil. […] The plants were then cultured in a green house, and the evaluation of the herbicidal effects and phytotoxicity was conducted on the 21st day after the application in accordance with the standards as identified in Table 47.

slender amaranth (Am) [18] = assay: as above; assay type: in vivo; parameters: scale not given here; details: dose 6.3 g ai/10a, 21st day after application
Procedure: as §4, §9

[19] = tested on: common lambsquarters (Ch); assay: as above; assay type: in vivo; parameters: scale not given here; details: dose 6.3 g ai/10a, 21st day after application
Procedure: as §4, §9

green foxtail (Se) [20] = assay: as above; assay type: in vivo; parameters: scale not given here; details: dose 6.3 g ai/10a, 21st day after application
Procedure: as §4, §9

China jute (Ab) [21] = assay: as above; assay type: in vivo; parameters: scale not given here; details: dose 6.3 g ai/10a, 21st day after application
Procedure: as §4, §9

corn (Ze) = assay: Test Example 7: crop plant selectivity by upland field soil treatment (corn), phytotoxicity; assay type: in vivo; parameters: scale not given here; details: dose 6.3 g ai/10a, 21st day after application
Procedure: as §4, §9

pale smartweed (Po) [22] = assay: Test Example 4: crop plant selectivity by upland field soil treatment (cotton), herbicidal effects; assay type: in vivo; parameters: scale not given here; details: dose 6.3 g ai/10 a, evaluated 21st day after application
Procedure: as §4, §5

slender amaranth (Am) [23] = assay: as above; assay type: in vivo; parameters: scale not given here; details: dose 6.3 g ai/10 a, evaluated 21st day after application
Procedure: as §4, §5

[24] = tested on: common lambsquarters (Ch); assay: as above; assay type: in vivo; parameters: scale not given here; details: dose 6.3 g ai/10 a, evaluated 21st day after application
Procedure: as §4, §5

green foxtail (Se) [25] = assay: as above; assay type: in vivo; parameters: scale not given here; details: dose 6.3 g ai/10 a, evaluated 21st day after application
Procedure: as §4, §5

China jute (Ab) [26] = assay: as above; assay type: in vivo; parameters: scale not given here; details: dose 6.3 g ai/10 a, evaluated 21st day after application
Procedure: as §4, §5

pale smartweed (Po) [27] = assay: Test Example 9: crop plant selectivity by upland field foliage treatment (wheat), herbicidal effects; assay type: in vivo; parameters: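 grade of growth control; 5 = at least 90%; 4 = 70 to 90%; 3 = 50 to 70%; 2 = 30 to 50%; 1 = 10 to 30%; 0 = under 10%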; details: dose 1.6 g ai/10a, 14th day after treatment
Procedure: as §2, §3

slender amaranth (Am) [28] = assay: as above; assay type: in vivo; parameters: scale not given here; details: dose 1.6 g ai/10a, 14th day after treatment
Procedure: as §2, §3

[29] = tested on: common lambsquarters (Ch); assay: as above; assay type: in vivo; parameters: scale not given here; details: dose 1.6 g ai/10a, 14th day after treatment
Procedure: as §2, §3

China jute (Ab) [30] = assay: as above; assay type: in vivo; parameters: scale not given here; details: dose 1.6 g ai/10a, 14th day after treatment
Procedure: as §2, §3

C#CC(CC)Oc1cc(-c2ccc(C(F)(F)F)n(C)c2=O)c(F)cc1Cl (racemic) [1-122]
Herbicidal effects Mo (monochoria (Mo)): 5 | Herbicidal effects Ec (barnyardgrass (Ec) [1]): 5 | Herbicidal effects Sc (bulrush (Sc)): 5 | Phytotoxicity Tr (wheat (Tr)): 2 | Phytotoxicity Go (cotton (Go)): 0 | Herbicidal effects Po (pale smartweed (Po) [2]): 5 | Herbicidal effects Am (slender amaranth (Am) [3]): 5 | Herbicidal effects Ch [4]: 5 | Herbicidal effects Ec (barnyardgrass (Ec) [5]): 5 | Herbicidal effects Di (Diaitaria ciliaris (Di)): 5 | Herbicidal effects Ci (rice flatsedge (Ci) [6]): 5 | Herbicidal effects Po (pale smartweed (Po) [7]): 5 | Herbicidal effects Am (slender amaranth (Am) [8]): 5 | Herbicidal effects Ch [9]: 5 | Herbicidal effects Ec (barnyardgrass (Ec) [10]): 5 | Herbicidal effects Di (Digitaria ciliaris (Di)): 5 | Herbicidal effects Ci (rice flatsedge (Ci) [11]): 5 | Herbicidal effects Po (pale smartweed (Po) [12]): 5 | Herbicidal effects Am (slender amaranth (Am) [13]): 5 | Herbicidal effects Ch [14]: 5 | Herbicidal effects Se (green foxtail (Se) [15]): 5 | Herbicidal effects Ab (China jute (Ab) [16]): 5 | Phytotoxicity Gl (soybean (Gl)): 2 | Herbicidal effects Po (pale smartweed (Po) [17]): 5 | Herbicidal effects Am (slender amaranth (Am) [18]): 5 | Herbicidal effects Ch [19]: 5 | Herbicidal effects Se (green foxtail (Se) [20]): 5 | Herbicidal effects Ab (China jute (Ab) [21]): 5 | Phytotoxicity Ze (corn (Ze)): 1 | Herbicidal effects Po (pale smartweed (Po) [22]): 5 | Herbicidal effects Am (slender amaranth (Am) [23]): 5 | Herbicidal effects Ch [24]: 5 | Herbicidal effects Se (green foxtail (Se) [25]): 5 | Herbicidal effects Ab (China jute (Ab) [26]): 5 | Herbicidal effects Po (pale smartweed (Po) [27]): 5 | Herbicidal effects Am (slender amaranth (Am) [28]): 5 | Herbicidal effects Ch [29]: 5 | Herbicidal effects Ab (China jute (Ab) [30]): 5

Reference: US6472348B1, “Pyridone derivatives and herbicides” (Kumiai Chemical Industry Co., Ltd., priority 1996, dated 2002)
